24 compounds from US20230049231A1 (priority 2019, published 2023) can be followed below.

For one assay, the target named is T1, Kv1.3 potassium channel (Homo sapiens, UniProt P22001).
T1 construct: expressed in transfected cells
Kind of assay: Kv1.3 potassium channel blocker activity, automated whole-cell patch clamp (Patchliner). In kind it is cell-based. The method, boiled down:
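IC50 came from Hill-equation fits of peak and AUC currents from the final pulse at each concentration, normalized to compound-free control. Compounds applied consecutively at 30 nM to 100 μM (up to 0.3% DMSO) to Kv1.3-expressing CHO-K1 cells, P/4 leak subtraction. Pulses were +40 mV, 100 ms, from −90 mV holding, at 0.1 Hz on Patchliner.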
For orientation: Patch clamp records ionic current or voltage across a cell membrane.

The target of the next assay is T2, hERG channel (Homo sapiens, UniProt Q12809).
T2 construct: expressed in transfected cells
T2 sequence (Q12809 whole entry): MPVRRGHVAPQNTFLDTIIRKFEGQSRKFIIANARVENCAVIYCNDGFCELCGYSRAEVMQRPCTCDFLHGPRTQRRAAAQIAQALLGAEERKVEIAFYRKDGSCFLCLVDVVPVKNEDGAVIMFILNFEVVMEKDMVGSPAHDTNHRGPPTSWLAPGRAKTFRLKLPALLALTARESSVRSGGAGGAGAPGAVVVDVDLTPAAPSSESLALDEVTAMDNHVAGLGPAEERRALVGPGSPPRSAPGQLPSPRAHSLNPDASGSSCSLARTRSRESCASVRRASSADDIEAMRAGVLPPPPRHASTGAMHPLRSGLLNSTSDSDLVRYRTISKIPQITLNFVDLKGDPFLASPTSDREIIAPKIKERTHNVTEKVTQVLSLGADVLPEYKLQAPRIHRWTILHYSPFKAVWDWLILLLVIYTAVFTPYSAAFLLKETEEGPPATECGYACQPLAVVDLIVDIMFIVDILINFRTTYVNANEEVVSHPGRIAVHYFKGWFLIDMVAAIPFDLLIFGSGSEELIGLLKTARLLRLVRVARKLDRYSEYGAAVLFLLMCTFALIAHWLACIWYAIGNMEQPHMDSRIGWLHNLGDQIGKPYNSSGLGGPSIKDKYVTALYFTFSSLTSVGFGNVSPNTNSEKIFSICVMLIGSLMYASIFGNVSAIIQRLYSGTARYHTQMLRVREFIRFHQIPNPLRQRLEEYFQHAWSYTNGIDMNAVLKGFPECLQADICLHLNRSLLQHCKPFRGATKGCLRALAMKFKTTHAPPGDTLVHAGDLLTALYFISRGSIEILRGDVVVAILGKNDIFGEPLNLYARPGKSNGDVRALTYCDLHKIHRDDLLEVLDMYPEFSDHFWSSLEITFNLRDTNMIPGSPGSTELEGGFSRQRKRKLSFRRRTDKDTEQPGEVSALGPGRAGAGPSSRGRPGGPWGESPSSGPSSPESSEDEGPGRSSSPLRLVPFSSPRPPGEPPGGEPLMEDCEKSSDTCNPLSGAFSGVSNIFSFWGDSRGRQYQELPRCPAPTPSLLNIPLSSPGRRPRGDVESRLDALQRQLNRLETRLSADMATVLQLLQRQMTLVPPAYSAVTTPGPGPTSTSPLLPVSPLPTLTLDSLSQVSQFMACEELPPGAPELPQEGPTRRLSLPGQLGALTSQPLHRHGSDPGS
Kind of assay: hERG electrophysiology, automated whole-cell patch clamp (Patchliner). In kind it is cell-based. The method, boiled down:
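Automated whole-cell patch clamp on CHO-K1 cells stably expressing hERG; 30 nM–100 μM applied cumulatively to the same cell, ≤0.3% DMSO. Pulses: −80 mV holding, +20 mV for 300 ms, −50 mV for 300 ms tail, 0.3 Hz, 70 per concentration. Last-pulse AUC and peak, normalized to control, were fitted to a Hill equation for IC50.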
On the technique in general: hERG is a cardiac potassium channel; its block is linked to QT prolongation.

Where [1] appears, read: Kv1.3 potassium channel, whole-cell patch clamp.
The mark [2] stands for this setting: hERG channel, whole-cell patch clamp.
Where [3] appears, read: CHO-K1 cells stably expressing Kv1.3, 100 ms pulses from -90 mV to +40 mV, 0.1 Hz.
Setting [4] is: CHO-K1 cells stably expressing hERG, +20 mV 300 ms, -50 mV 300 ms tail current, 0.3 Hz.

A word on the IC50: it is the midpoint of a concentration-inhibition curve.

T1 sequence (P22001 whole entry): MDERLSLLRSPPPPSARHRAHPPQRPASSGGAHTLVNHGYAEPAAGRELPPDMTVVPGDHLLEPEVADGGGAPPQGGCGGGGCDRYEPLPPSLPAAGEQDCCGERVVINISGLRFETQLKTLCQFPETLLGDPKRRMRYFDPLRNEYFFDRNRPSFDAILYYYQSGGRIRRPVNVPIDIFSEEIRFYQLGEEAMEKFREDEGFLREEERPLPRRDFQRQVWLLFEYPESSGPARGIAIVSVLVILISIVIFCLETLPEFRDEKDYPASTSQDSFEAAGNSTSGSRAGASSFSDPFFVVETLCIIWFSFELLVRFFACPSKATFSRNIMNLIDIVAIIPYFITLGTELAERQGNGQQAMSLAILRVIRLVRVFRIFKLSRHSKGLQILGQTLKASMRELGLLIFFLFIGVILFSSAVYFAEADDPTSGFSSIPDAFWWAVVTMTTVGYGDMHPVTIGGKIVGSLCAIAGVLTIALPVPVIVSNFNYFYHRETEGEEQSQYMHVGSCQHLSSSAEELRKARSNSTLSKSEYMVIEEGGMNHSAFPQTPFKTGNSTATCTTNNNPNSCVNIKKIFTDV

For `CC1(C)OC(=O)N2C[C@@H](c3c(O)ccc(Cl)c3Cl)C[C@H]2C1O` (stereo partly drawn) [Compound 257, (4aS,6R)-6-(2,3-dichloro-6-hydroxyphenyl)-4-hydroxy-3,3-dimethylhexahydro-1H-pyrrolo[1,2-c][1,3]oxazin-1-one], the 50% inhibitory concentration (IC50) against Kv1.3 potassium channel (setting [1]) is less than 1 µM; on hERG channel (setting [2]), more than 30 µM.
Regarding `COC[C@@H](O)CN1CC(=O)N2C[C@@H](c3c(O)ccc(Cl)c3Cl)C[C@H]2C1` (single isomer, unassigned; isomer 1) [Compound 152], the IC50 was less than 1 µM at Kv1.3 potassium channel (setting [1]) and less than 30 µM against hERG channel (setting [2]).
The matching figures for `O=C1CN(CC2CNC2)C[C@@H]2C[C@H](c3c(O)ccc(Cl)c3Cl)CN12` [Compound 128, (7R,8aS)-2-(azetidin-3-ylmethyl)-7-(2,3-dichloro-6-hydroxyphenyl)-hexahydropyrrolo [1,2-a]pyrazin-4-one]: less than 1 µM and more than 30 µM.
For the compound `N#CCC(=O)N1CC(=O)N2C[C@@H](c3c(O)ccc(Cl)c3Cl)C[C@H]2C1` [Compound 41, 3-[(7R,8aS)-7-(2,3-dichloro-6-hydroxypheny1)-4-oxo-hexahydropyrrolo[1,2-a]pyrazin-2-yl]-3-oxopropanenitrile], the 50% inhibitory concentration (IC50) is less than 1 µM at Kv1.3 potassium channel (setting [3]) and more than 30 µM at hERG channel (setting [4]).
The matching figures for `O=C(CO)N1CC(=O)N2CC[C@@H](c3c(O)ccc(Cl)c3Cl)C[C@H]2C1` [Compound 1, (8R,9aS)-8-(2,3-dichloro-6-hydroxyphenyl)-2-(2-hydroxyacetyl)-hexahydro-1H-pyrido[1,2-a]pyrazin-4-one]: less than 1 µM and more than 30 µM.
The like results for `O=C1[C@@H](CO)OC[C@@H]2C[C@H](c3c(O)ccc(Cl)c3Cl)CCN12` (single isomer, unassigned) [Compound 52] were, in that order, less than 1 µM and more than 30 µM.
For `CN1CC(N2CC(=O)N3C[C@@H](c4c(O)ccc(Cl)c4Cl)C[C@H]3C2)C1` [Compound 132, (7R,8aS)-7-(2,3-dichloro-6-hydroxyphenyl)-2-(1-methylazetidin-3-yl)-hexahydropyrrolo [1,2-a]pyrazin-4-one], the IC50 was less than 1 µM on Kv1.3 potassium channel (setting [1]) and less than 30 µM against hERG channel (setting [2]).
The like results for `O=C(N1CC[C@@H](O)C1)N1CC(=O)N2C[C@@H](c3c(O)ccc(Cl)c3Cl)C[C@H]2C1` [Compound 101, (7R,8aS)-7-(2,3-dichloro-6-hydroxyphenyl)-2-[(3R)-3-hydroxypyrrolidine-1-carbonyl]-hexahydropyrro[1,2-a]pyrazine-4-one] were, in that order, less than 1 µM and more than 30 µM.
The like results for `O=C1C[C@H](N2CC(O)C2)C[C@@H]2C[C@H](c3c(O)ccc(Cl)c3Cl)CN12` (single isomer, unassigned) [Compound 197] were, in that order, less than 1 µM and more than 30 µM.
The like results for `O=C1CN([C@H]2CCNC2)C[C@@H]2C[C@H](c3c(O)ccc(Cl)c3Cl)CN12` [Compound 142, (7R,8aS)-7-(2,3-dichloro-6-hydroxyphenyl)-2-[(3S)-pyrrolidin-3-yl]-hexahydropyrrolo [1,2-a]pyrazin-4-one] were, in that order, less than 1 µM and more than 30 µM.
Consider `O=C1CC(N2CCNCC2)C[C@@H]2C[C@H](c3c(O)ccc(Cl)c3Cl)CN12` (single isomer, unassigned) [Compound 207], for which the half-inhibitory concentration (IC50) was less than 1 µM at Kv1.3 potassium channel (setting [1]) and more than 30 µM at hERG channel (setting [2]).
Take `C[C@H]1C(=O)N2CC[C@@H](c3c(O)ccc(Cl)c3Cl)C[C@H]2CN1C(=O)CO` [Compound 46, (3S,8R,9aS)-8-(2,3-dichloro-6-hydroxyphenyl)-2-(2-hydroxyacetyl)-3-methyloctahydro-4H-pyrido[1,2-a]pyrazin-4-one]: the IC50 against Kv1.3 potassium channel (setting [3]) was less than 1 µM; against hERG channel (setting [4]) it was more than 30 µM.
Consider `C[C@H](O)[C@H](CO)N1CC(=O)N2C[C@@H](c3c(O)ccc(Cl)c3Cl)C[C@H]2C1` (relative stereo) [Compound 165, (7R,8aS)-7-(2,3-dichloro-6-hydroxyphenyl)-2-[(2S,3S)-rel-1,3-dihydroxybutan-2-yl]-hexahydropyrrolo[1,2-a]pyrazin-4-one], for which the half-inhibitory concentration (IC50) against Kv1.3 potassium channel (setting [1]) is less than 1 µM; against hERG channel (setting [2]) it was more than 30 µM.
The like results for `O=C1C(CN2CCCC2)OC[C@@H]2C[C@H](c3c(O)ccc(Cl)c3Cl)CCN12` (stereo partly drawn) [Compound 181, (8R,9aS)-8-(2,3-dichloro-6-hydroxyphenyl)-3-(pyrrolidin-1-ylmethyl)-hexahydro-1H-pyrido[2,1-c][1,4]oxazin-4-one] were, in that order, less than 1 µM and less than 10 µM.
In the case of `O=C1O[C@H](CN2CCOCC2)[C@@H]2C[C@H](c3c(O)ccc(Cl)c3Cl)CN12` (single isomer, unassigned) [Compound 285], the IC50 is less than 1 µM on Kv1.3 potassium channel (setting [1]) and more than 30 µM against hERG channel (setting [2]).
The like results for `O=C1CC(O)C[C@@H]2C[C@H](c3c(O)ccc(Cl)c3Cl)CCN12` (stereo partly drawn) [Compound 250, (8R,9aS)-8-(2,3-dichloro-6-hydroxyphenyl)-2-hydroxy-octahydroquinolizin-4-one] were, in that order, less than 1 µM and more than 30 µM.
The matching figures for `C[C@@H](O)[C@@H]1OC(=O)N2C[C@@H](c3c(O)ccc(Cl)c3Cl)C[C@@H]12` (single isomer, unassigned) [Compound 259]: less than 1 µM and more than 30 µM.
With `O=C1C[C@@H](O)C[C@@H]2C[C@H](c3c(O)ccc(Cl)c3Cl)CN12` (single isomer, unassigned; isomer 1) [Compound 61], the IC50 on Kv1.3 potassium channel (setting [3]) is less than 1 µM; at hERG channel (setting [4]), more than 30 µM.
The like results for `C[C@H](O)C(=O)N1CC(=O)N2CC[C@@H](c3c(O)ccc(Cl)c3Cl)C[C@H]2C1` [Compound 49, (8R,9aS)-8-(2,3-dichloro-6-hydroxyphenyl)-2-[(2S)-2-hydroxypropanoyl]-hexahydro-1H-pyrido[1,2-a]pyrazin-4-one] were, in that order, less than 1 µM and more than 30 µM.
The matching figures for `CN(C)CC(=O)N1CC(=O)N2CC[C@@H](c3c(O)ccc(Cl)c3Cl)C[C@H]2C1` [Compound 40, (8R,9aS)-8-(2,3-dichloro-6-hydroxyphenyl)-2-[2-(dimethylamino)acetyl]-hexahydro-1H-pyrido[1,2-a]pyrazin-4-one]: less than 1 µM and less than 30 µM.
On to `CNC(=O)C1CC(=O)N2C[C@@H](c3c(O)ccc(Cl)c3Cl)C[C@H]2C1` (stereo partly drawn) [Compound 232, (2R,8aS)-2-(2,3-dichloro-6-hydroxyphenyl)-N-methyl-5-oxo-hexahydro-1H-indolizine-7-carboxamide], for which the IC50 against Kv1.3 potassium channel (setting [1]) was less than 1 µM; against hERG channel (setting [2]), more than 30 µM.
Consider `O=C1CN(C(=O)[C@H]2C[C@H](O)C2)C[C@@H]2C[C@H](c3c(O)ccc(Cl)c3Cl)CN12` (single isomer, unassigned; isomer 1) [Compound 27], for which the figures for the 50% inhibitory concentration (IC50) against Kv1.3 potassium channel (setting [3]) and on hERG channel (setting [4]) were less than 1 µM and more than 30 µM, respectively.
On to `O=C(NC1CNC1)[C@@H]1CC(=O)N2C[C@@H](c3c(O)ccc(Cl)c3Cl)C[C@H]2C1` (single isomer, unassigned) [Compound 236], for which the IC50 on Kv1.3 potassium channel (setting [1]) is less than 1 µM; on hERG channel (setting [2]) it was more than 30 µM.
For `O=C(CO)N1CC(N2CC(=O)N3C[C@@H](c4c(O)ccc(Cl)c4Cl)C[C@H]3C2)C1` [Compound 133, (7R,8aS)-7-(2,3-dichloro-6-hydroxyphenyl)-2-[1-(2-hydroxyacetyl)azetidin-3-yl]-hexahydropyrrolo [1,2-a]pyrazin-4-one], the IC50 on Kv1.3 potassium channel (setting [1]) is less than 1 µM; against hERG channel (setting [2]), more than 30 µM.
